# Source: ChEMBL document CHEMBL1817641, “Synthesis and biological evaluation of some novel N-aryl-1,4-dihydropyridines as potential antitubercular agents” (Bioorg Med Chem Lett, 2011)
# What was measured:
# [1] = test system: Mycobacterium tuberculosis; assay: Antitubercular activity against Mycobacterium tuberculosis H37Rv at 6.25 ug/mL after 4 days by MABA assay; assay type: functional; conditions: 96 h
# [2] = test system: Vero; assay: Cytotoxicity against african green monkey Vero cells; assay type: cell-based; conditions: Chlorocebus sabaeus
# [3] = test system: Mycobacterium tuberculosis; assay: Antitubercular activity against Mycobacterium tuberculosis H37Rv after 4 days by MABA assay; assay type: functional; conditions: 96 h
# [4] = Selectivity index, ratio of IC50 for african green monkey Vero cells to MIC for Mycobacterium tuberculosis H37Rv; assay type: functional
Structure (SMILES),inhibition at 6.25 µg/mL [1] [%],IC50 [2] [µg/mL],MIC [3] [µg/mL],Selectivity Index [4]
CCOC(=O)C1=C(C)N(c2ccccc2)C(C)=C(C(=O)OCC)C1c1cn(-c2ccccc2)nc1-c1ccccc1,96,> 10,1.56,>6.4
CCOC(=O)C1=C(C)N(c2ccccc2C)C(C)=C(C(=O)OCC)C1c1cn(-c2ccccc2)nc1-c1ccccc1,95,> 10,3.13,>3.2
CCOC(=O)C1=C(C)N(c2cccc(C)c2)C(C)=C(C(=O)OCC)C1c1cn(-c2ccccc2)nc1-c1ccccc1,98,> 10,1.56,>6.4
CCOC(=O)C1=C(C)N(c2ccc(C)cc2)C(C)=C(C(=O)OCC)C1c1cn(-c2ccccc2)nc1-c1ccccc1,48,–,48,–
CCOC(=O)C1=C(C)N(c2ccccc2Cl)C(C)=C(C(=O)OCC)C1c1cn(-c2ccccc2)nc1-c1ccccc1,100,> 10,0.02,>500
CCOC(=O)C1=C(C)N(c2cccc(Cl)c2)C(C)=C(C(=O)OCC)C1c1cn(-c2ccccc2)nc1-c1ccccc1,97,7.08,1.56,4.5
CCOC(=O)C1=C(C)N(c2ccc(Cl)cc2)C(C)=C(C(=O)OCC)C1c1cn(-c2ccccc2)nc1-c1ccccc1,74,–,–,–
CCOC(=O)C1=C(C)N(c2ccccc2OC)C(C)=C(C(=O)OCC)C1c1cn(-c2ccccc2)nc1-c1ccccc1,39,–,–,–
CCOC(=O)C1=C(C)N(c2cccc(OC)c2)C(C)=C(C(=O)OCC)C1c1cn(-c2ccccc2)nc1-c1ccccc1,55,–,–,–
CCOC(=O)C1=C(C)N(c2ccc(OC)cc2)C(C)=C(C(=O)OCC)C1c1cn(-c2ccccc2)nc1-c1ccccc1,33,–,–,–
CC(=O)C1=C(C)N(c2ccccc2)C(C)=C(C(C)=O)C1c1cn(-c2ccccc2)nc1-c1ccccc1,48,–,–,–
CC(=O)C1=C(C)N(c2ccccc2C)C(C)=C(C(C)=O)C1c1cn(-c2ccccc2)nc1-c1ccccc1,97,> 10,3.13,>3.2
CC(=O)C1=C(C)N(c2cccc(C)c2)C(C)=C(C(C)=O)C1c1cn(-c2ccccc2)nc1-c1ccccc1,98,> 10,6.25,>1.6
CC(=O)C1=C(C)N(c2ccc(C)cc2)C(C)=C(C(C)=O)C1c1cn(-c2ccccc2)nc1-c1ccccc1,34,–,–,–
CC(=O)C1=C(C)N(c2ccccc2Cl)C(C)=C(C(C)=O)C1c1cn(-c2ccccc2)nc1-c1ccccc1,59,–,–,–
CC(=O)C1=C(C)N(c2cccc(Cl)c2)C(C)=C(C(C)=O)C1c1cn(-c2ccccc2)nc1-c1ccccc1,76,–,–,–
CC(=O)C1=C(C)N(c2ccc(Cl)cc2)C(C)=C(C(C)=O)C1c1cn(-c2ccccc2)nc1-c1ccccc1,29,–,–,–
COc1ccccc1N1C(C)=C(C(C)=O)C(c2cn(-c3ccccc3)nc2-c2ccccc2)C(C(C)=O)=C1C,25,–,–,–
COc1cccc(N2C(C)=C(C(C)=O)C(c3cn(-c4ccccc4)nc3-c3ccccc3)C(C(C)=O)=C2C)c1,77,–,–,–
COc1ccc(N2C(C)=C(C(C)=O)C(c3cn(-c4ccccc4)nc3-c3ccccc3)C(C(C)=O)=C2C)cc1,69,–,–,–
NNC(=O)c1ccncc1 [ISONIAZID],–,–,0.03,–
